Results taken from patent US9266817B2, “Catecholamine derivatives for obesity and neurological disorders” (EMORY UNIVERSITY, priority 2009, dated 2016).

What was measured:
TrkB [1] = target: T1, TrkB (Mus musculus, UniProt P15209, F616A); format: in vivo; details: 1NMPP1 50 μM; for TrkB tyrosine phosphorylation/activation in mice: L-DOPA 50 mg/kg, DOPS 100 mg/kg
T1 construct: from tissue; host or cells: mouse brain
Procedure: The DOPS concentration was 20 mg/ml, the vitamin C concentration was 2 mg/ml, and the benserazide concentration was 5 mg/ml. The vitamin C prevents oxidation of the DOPS, and the benserazide is a peripheral inhibitor of AADC and restricts the production of NE from DOPS to the brain. The compounds were added to a tube, and 20 μl of 10 M HCl was added to each ml of DOPS solution. The appropriate amount of water was added to the tube, and then HCl was added to achieve the desired volume. For example, to make 1 mL of a DOPS solution, 20 mg DOPS, 2 mg vitamin C, and 5 mg benserazide were added to a tube, followed by 980 μL of water and 20 μL of 10 M HCl. The solution was vortexed until all DOPS was dissolved. The DOPS solution was injected subcutaneously in a volume of 50 μl/g of mouse. The appropriate amount of DOPS solution was pipetted into a clean tube, followed by the amount of 10 M NaOH required to exactly neutralize the HCl. The solution was then shaken. The amount of 10 M NaOH is the weight of the mouse in microliters. For example, for a 20 g mouse, pipet 1 ml of the DOPS solution is pipetted into a tube and 20 μL of 10 M NaOH is added. For a 30 g mouse, 1.5 mL of the DOPS solution is pipetted into a tube and 30 μl of 10 M NaOH is added. Two to four month-old TrkBF616A mice were pretreated with 1NMPP1 in drinking water (50 μM) 1 day before L-DOPA (50 mg/kg) or DOPS (100 mg/kg) intraperitoneal injection. At times of 2 hours and 5 hours after drug administration, the L-DOPA or DOPS-treated mice were sacrificed, respectively. The brain lysates were prepared and analyzed by immunoblotting against anti-phospho-TrkB Y816 and TrkA Y794 antibodies.
(§1) TrkB F616A mice were pretreated with 1NMPP1 (50 μM) before L-DOPA or DOPS administration.

TrkB [2] = target: T2, TrkB (Rattus norvegicus, UniProt Q63604); assay: TrkB activation in cortical neurons after pretreatment with antibodies, receptor antagonists, transporter inhibitors or EDTA (anti-p-TrkB-Y-816 immunoblot); format: cell-based; details: BDNF-IgG 30 minutes, then BDNF 10 ng/ml or catecholamines 100 nM, 15 minutes
T2 construct: endogenous in cells; host or cells: primary rat cortical and hippocampal neurons
Excerpt: (§2) Both antidepressants and exercise increase hippocampal BDNF mRNA expression through enhanced 5-HT and/or NE neurotransmission (Siuciak et al., Pharmacol. Biochem. Behav., 56:131-137, 1997; Dias et al., Neuropharmacology, 45:553-563, 2003; Ivy et al., Pharmacol. Biochem. Behav., 75:81-88, 2003; Garza et al., Pharmacol. Biochem. Behav., 77:209-220, 2004). If catecholamines activated TrkB signaling indirectly by promoting BDNF generation, then scavenging BDNF with its specific antibody would be expected to diminish catecholamines-mediated activation of TrkB. Cultured cortical neurons were pretreated with BDNF-IgG for 30 minutes followed by exposure to BDNF (10 ng/ml) or catecholamines (100 nM) for 15 minutes. […] It was then determined whether catecholamines could activate TrkB in neurons cultured from mice carrying a null mutation of BDNF.
To further investigate the specificity of catecholamines in inducing TrkB activation, cortical neurons were pretreated with control IgG or norepinephrine IgG, a rabbit polyclonal antibody for norepinephrine, followed by catecholamines.
(§3) It was then determined whether catecholamines could activate TrkB in neurons cultured from mice carrying a null mutation of NET.
(§4) The cell lysates were analyzed by immunoblotting with anti-p-TrkB-Y-816.
as §4
A group of primary cortical neurons were pretreated with 1 mM EDTA, and another group of primary cortical neurons were not pretreated. Both groups of primary cortical neurons were then treated with either Zn (100 μM) or a catecholamine (100 nM) for 15 minutes. The neuronal cell lysates were analyzed by immunoblotting with anti-p-TrkB-Y-816 antibody.

TrkB [3] = target: T3, TrkB (Mus musculus, UniProt P15209); assay: TrkB activation in cortical neurons cultured from BDNF-null mice; format: cell-based; details: 15 min
T3 construct: endogenous in cells; host or cells: primary cortical neurons from BDNF-null, TrkB +/- cross, TrkC knockout and NET -/- mice
Excerpt: as §2

[4] = target: T4, TrkB extracellular domain (ECD) (Homo sapiens, UniProt Q16620); assay: In vitro binding assay with purified TrkB ECD and 3H-ligands; details: purified ECD, 3H-ligand
T4 construct: purified ECD (extracellular domain) and ICD (intracellular domain) proteins from Trk receptors
Procedure: (§5) Purified TrkA and TrkB ECD or ICD proteins were incubated with different ^3H-catecholamines at 25° C. for 30 minutes in 1 ml of binding buffer (50 mM Tris-HCl, pH 7.4, 100 mM NaCl, 5 nM ^3H-catecholamines (32000 cpm)). After the incubation, the reaction mixture was loaded on a Whatman glass-fiber filter (GF-B) (Whatman Inc.; Piscataway, N.J.). The mixture was washed with 3×5 ml washing buffer (50 mM Tris-HCl, pH 7.4). The dried filter paper was put into a small vial and subjected to liquid scintillation counter analysis. The value of the dissociate constant and the number of sites were obtained from Scatchard plots by using the equation r/[L]free =n/Kd−r/Kd, where r is the ratio of the concentration of bound ligand to the total protein concentration and n is the number of binding sites.
(§6) To determine whether catecholamines bind TrkB directly, an in vitro binding assay was conducted with purified ECD (extracellular domain) and ICD (intracellular domain) proteins from Trk receptors and ^3H-catecholamines. […] To determine whether the binding by catecholamines to TrkB receptor caused dimerization, GST-TrkB was co-transfected into HEK293 cells with HA-TrkB, followed by BDNF or monoamines treatment for 15 minutes.

TrkB F616A knockin mice = assay: Kainic acid-induced neuronal apoptosis in TrkB F616A knockin mice (immunoblotting and Caspase-3 ELISA); format: in vivo; details: 1NMPP1 16.6 ng/kg 2 days before
Procedure: To determine whether Compound I-11 (ADPP) and Compound I-8 (DDAP) protect neurons from KA-induced apoptosis, TrkB F616A knockin mice were pretreated with inhibitor 1NMPP1 (16.6 ng/kg) 2 days before the experiment. Compound I-8 (DDAP) or Compound I-11 (ADPP) (50 mg/kg) was orally injected into the mice 2 hours before kainic acid (KA) administration (20 mg/kg). Brain lysates were analyzed by immunoblotting and Caspase-3 ELISA. […] The extent of the protective effect correlates with TrkB activation status by these compounds. Active Caspase-3 ELISA correlated with the immunoblotting results (FIG. 28B, right panel).

[5] = tested on: TrkB F616A cortical neurons; assay: Glutamate-provoked apoptosis of TrkB F616A cortical neurons (TUNEL assay); format: cell-based, mice; design: Effect of inhibitor on protective action of norepinephrine: dose or concentration left out as unconfirmed; details: glutamate overnight
Procedure: Norepinephrine has neuroprotective activity against oxidative stress-induced neuronal apoptosis. To investigate whether this protective action by norepinephrine is mediated through TrkB, apoptosis of TrkB F616A cortical neurons was monitored. Primary cortical neurons were pretreated with inhibitors K252a or 1NMPP1 followed by overnight treatment with 50 mM glutamate.

mice = assay: Forced swim test; format: in vivo; details: TrkB F616A knockin mice
Procedure: Accumulating evidence supports that BDNF plays an essential role in mediating antidepressants' therapeutic effects. Infusion of exogenous BDNF into hippocampus or brain stem has antidepressant-like behavioral effect. A forced swim test is broadly used for screening of potential antidepressant drugs and is widely used to measure antidepressant activity. To explore whether Compound I-11 (ADPP) and Compound I-8 (DDAP) have antidepressant effects like BDNF, forced swim tests were conducted. Adult male mice (2-3 months old, n=8) were randomly submitted, without a pre-swim, to a forced swim test of 6 minutes with immobility recorded in the last 4 minutes. Mice were injected intraperitoneally with saline, Compound I-11 (20 mg/kg), or Compound I-8 (20 mg/kg). The mice were allowed to adapt to the test room for 2 days, and the mice were placed in a clear glass cylinder with a diameter of 16 cm, half-filled with clear water at 24° C.
To assess whether the behavior responses caused by catecholamine derivatives is mediated by TrkB receptor, TrkB F616A knockin mice were utilized. The mice were subjected to saline or 1NMPP1 inhibitor pretreatment.

TrkB F616A [6] = target: T5, TrkB F616A (Mus musculus, UniProt P15209); assay: TrkB phosphorylation in TrkB F616A or TrkA F592A cortical neurons pretreated with K252a or 1NMPP1; format: cell-based, mice; details: TrkA F592A neurons
T5 construct: endogenous in cells; host or cells: primary cortical neurons from TrkB F616A knock-in mice
Procedure: as §1
(§7) On day 7, the primary cortical neurons were pretreated with 100 nM K252a or 1NMPP1 for 30 min, followed by 500 nM ADPP and DDAP. Cell lysates were analyzed by Western blotting.

TrkB F616A [7] = target: T6, TrkB F616A (Mus musculus, UniProt P15209, F616A); assay: as above; format: cell-based, mice; details: TrkB F616A knock-in cortical neurons
T6 construct: endogenous in cells; host or cells: primary cortical neurons from TrkB F616A knock-in mice
Procedure: as §1, §7

TrkB [8] = target: T7, TrkB (Homo sapiens, UniProt Q16620); assay: Tyrosine phosphorylation of TrkB in transfected HEK293 cells; format: cell-based; design: expressed in transfected cells; host or cells: HEK293
Procedure: as §6
Target sequence in this assay (Q16620 32-822, species assumed): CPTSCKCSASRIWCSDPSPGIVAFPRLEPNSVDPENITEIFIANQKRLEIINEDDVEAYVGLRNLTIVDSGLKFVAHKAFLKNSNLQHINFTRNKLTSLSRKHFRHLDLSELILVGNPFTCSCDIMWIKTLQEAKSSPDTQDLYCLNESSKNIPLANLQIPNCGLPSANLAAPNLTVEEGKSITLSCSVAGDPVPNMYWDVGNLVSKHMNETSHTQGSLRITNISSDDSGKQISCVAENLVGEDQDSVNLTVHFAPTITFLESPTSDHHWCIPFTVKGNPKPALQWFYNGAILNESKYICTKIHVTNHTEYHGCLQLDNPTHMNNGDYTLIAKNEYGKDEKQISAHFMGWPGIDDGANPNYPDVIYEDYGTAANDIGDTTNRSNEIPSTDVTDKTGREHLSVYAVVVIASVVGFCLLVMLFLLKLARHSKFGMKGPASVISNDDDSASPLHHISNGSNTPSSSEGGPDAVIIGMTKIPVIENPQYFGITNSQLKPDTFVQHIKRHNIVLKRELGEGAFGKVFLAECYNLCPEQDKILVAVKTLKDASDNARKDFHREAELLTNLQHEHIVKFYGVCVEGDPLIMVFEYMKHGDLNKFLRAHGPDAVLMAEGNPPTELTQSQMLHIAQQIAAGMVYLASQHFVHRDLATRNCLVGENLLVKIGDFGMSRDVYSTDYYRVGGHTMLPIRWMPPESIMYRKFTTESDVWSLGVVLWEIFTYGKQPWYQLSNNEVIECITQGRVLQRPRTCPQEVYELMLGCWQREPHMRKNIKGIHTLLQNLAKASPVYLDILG

TrkB [9] = target: T7, TrkB; assay: Activation of transfected TrkB in HEK293 cells with or without DAT or NET; format: cell-based; design: expressed in transfected cells; host or cells: HEK293; details: NET transfected HEK293 cells
Target sequence in this assay (Q16620 32-822, species assumed): as above

TrkC = TrkC (Homo sapiens, UniProt Q16288); details: transfected HEK293 cells
Procedure: as §6

TrkA = TrkA (Homo sapiens, UniProt P04629); details: transfected HEK293 cells
Procedure: as §6

TrkB [10] = target: T3, TrkB; format: cell-based, mice; details: compared to wild-type control neurons
Procedure: as §3

[11] = target: T8, TrkB intracellular domain (ICD) (Homo sapiens, UniProt Q16620); assay: In vitro binding assay with purified TrkB ICD and 3H-ligands (Scatchard plot)
T8 construct: purified ECD (extracellular domain) and ICD (intracellular domain) proteins from Trk receptors
Procedure: as §5, §6

TrkB [12] = target: T7, TrkB; assay: TrkB dimerization, co-immunoprecipitation of GST-TrkB and HA-TrkB in HEK293 cells; format: cell-based; design: GST; HA; expressed in transfected cells; host or cells: HEK293; details: 15 minutes
Procedure: as §6
Target sequence in this assay (Q16620 32-822, species assumed): as above
Target sequence in this assay (Q16620 32-822, species assumed): as above

TrkB [13] = target: T2, TrkB; assay: Immunofluorescent staining with anti-phospho-TrkB Y816 in primary hippocampal neurons; format: cell-based; details: 300 nM, 30 min
Procedure: Primary Rat Cortical and Hippocampal Neuron Cultures
Primary hippocampal neurons were seeded on poly-L-lysine coated coverslips in a 12-well plate. After 7 days in vitro, the neurons were treated with 100 ng/ml BDNF or variety of neurotransmitters and 7,8-dihydroxyflavone compound (500 nM) for 30 min, and then washed with PBS. Cells were fixed with 3% formaldehyde in PBS at room temperature for 15 min. The cells were then permeabilized and blocked by 0.4% Triton X-100 and 2% FBS in PBS at room temperature for 15 minutes, washed with PBS three times and treated with anti-MAP2 (1:200) and anti-phospho-TrkB antibodies (1:100). After staining with FITC- or Rhodamine-conjugated secondary antibody, the coverslips were mounted on slides. Fluorescent images were taken by OLYMPUS IX71 fluorescence microscope (Olympus; Center Valley, Pa.).
To explore whether monoamine neurotransmitters, including catecholamines (see, e.g., FIG. 1), could stimulate TrkB activation, hippocampal neurons were treated with 300 nM of catecholamines, serotonin, and melatonin for 30 min.

T1 sequence (P15209 32-821 F616A): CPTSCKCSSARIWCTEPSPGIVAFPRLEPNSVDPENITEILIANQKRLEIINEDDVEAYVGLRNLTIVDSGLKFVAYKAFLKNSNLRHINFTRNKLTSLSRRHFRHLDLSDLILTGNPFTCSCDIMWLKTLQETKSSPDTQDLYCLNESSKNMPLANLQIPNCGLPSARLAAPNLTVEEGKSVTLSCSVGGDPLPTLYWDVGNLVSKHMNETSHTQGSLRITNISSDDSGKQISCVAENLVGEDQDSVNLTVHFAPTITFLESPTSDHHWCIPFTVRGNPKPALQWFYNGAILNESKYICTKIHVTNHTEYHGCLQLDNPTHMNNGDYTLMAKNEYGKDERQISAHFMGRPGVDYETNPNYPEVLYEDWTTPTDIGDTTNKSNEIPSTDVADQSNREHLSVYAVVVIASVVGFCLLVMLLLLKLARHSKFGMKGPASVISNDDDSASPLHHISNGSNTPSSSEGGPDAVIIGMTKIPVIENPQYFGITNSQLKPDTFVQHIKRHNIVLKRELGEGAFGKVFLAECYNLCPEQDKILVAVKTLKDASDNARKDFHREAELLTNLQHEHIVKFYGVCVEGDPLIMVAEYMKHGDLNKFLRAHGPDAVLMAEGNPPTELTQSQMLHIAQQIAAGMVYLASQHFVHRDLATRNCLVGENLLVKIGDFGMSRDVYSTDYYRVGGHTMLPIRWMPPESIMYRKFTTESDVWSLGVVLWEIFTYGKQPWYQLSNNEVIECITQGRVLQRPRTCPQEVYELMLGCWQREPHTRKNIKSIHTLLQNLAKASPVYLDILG
T3 sequence (P15209 32-821): as the sequence (P15209 32-821 F616A) above, with A585F counted along it
T2 sequence (Q63604 32-821): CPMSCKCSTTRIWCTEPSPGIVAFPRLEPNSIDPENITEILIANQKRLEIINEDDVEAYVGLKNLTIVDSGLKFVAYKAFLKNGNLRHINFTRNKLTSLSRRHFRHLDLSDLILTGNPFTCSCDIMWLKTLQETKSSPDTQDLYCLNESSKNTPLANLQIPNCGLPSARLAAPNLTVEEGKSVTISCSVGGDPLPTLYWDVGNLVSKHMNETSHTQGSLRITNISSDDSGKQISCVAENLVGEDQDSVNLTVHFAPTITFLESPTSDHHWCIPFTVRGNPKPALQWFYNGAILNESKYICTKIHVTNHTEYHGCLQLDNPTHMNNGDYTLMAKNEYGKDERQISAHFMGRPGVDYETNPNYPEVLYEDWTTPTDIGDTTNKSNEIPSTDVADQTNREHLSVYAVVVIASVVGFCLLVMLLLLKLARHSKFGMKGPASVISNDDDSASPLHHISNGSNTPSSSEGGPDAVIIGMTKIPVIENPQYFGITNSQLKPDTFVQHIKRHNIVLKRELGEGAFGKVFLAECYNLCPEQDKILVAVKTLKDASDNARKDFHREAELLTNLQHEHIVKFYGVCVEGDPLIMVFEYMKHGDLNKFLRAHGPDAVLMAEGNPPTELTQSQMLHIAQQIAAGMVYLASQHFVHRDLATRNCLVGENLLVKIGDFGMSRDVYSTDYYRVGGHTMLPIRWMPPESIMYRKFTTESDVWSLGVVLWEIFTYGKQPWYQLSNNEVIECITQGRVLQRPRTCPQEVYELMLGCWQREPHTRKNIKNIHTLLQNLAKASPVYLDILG
T8 sequence (Q16620 455-822 limits assumed): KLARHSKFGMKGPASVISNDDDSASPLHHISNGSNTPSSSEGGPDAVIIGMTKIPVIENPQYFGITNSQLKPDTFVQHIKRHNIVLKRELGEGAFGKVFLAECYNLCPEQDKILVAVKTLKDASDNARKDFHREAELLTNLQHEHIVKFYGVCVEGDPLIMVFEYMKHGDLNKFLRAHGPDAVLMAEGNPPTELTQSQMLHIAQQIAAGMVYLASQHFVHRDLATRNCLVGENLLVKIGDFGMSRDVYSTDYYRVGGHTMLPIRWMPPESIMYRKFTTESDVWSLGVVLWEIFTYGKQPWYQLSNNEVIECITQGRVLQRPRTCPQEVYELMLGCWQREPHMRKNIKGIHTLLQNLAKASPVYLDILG
T4 sequence (Q16620 32-430 limits assumed): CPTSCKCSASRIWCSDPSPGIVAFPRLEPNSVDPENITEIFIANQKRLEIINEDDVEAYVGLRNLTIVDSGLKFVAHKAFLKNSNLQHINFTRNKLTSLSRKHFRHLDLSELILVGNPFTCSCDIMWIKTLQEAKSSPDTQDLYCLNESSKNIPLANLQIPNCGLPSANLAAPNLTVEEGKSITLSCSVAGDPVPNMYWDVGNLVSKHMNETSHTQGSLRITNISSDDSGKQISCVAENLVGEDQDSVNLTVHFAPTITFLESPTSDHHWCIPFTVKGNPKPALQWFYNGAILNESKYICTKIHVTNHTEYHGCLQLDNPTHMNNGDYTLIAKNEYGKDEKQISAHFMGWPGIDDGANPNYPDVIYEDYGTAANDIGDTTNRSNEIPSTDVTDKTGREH
T6 sequence (P15209 32-821 F616A): as the sequence (P15209 32-821 F616A) above
T5 sequence (P15209 32-821 F616A): as above
Sequence of TrkA (P04629 33-796, species assumed): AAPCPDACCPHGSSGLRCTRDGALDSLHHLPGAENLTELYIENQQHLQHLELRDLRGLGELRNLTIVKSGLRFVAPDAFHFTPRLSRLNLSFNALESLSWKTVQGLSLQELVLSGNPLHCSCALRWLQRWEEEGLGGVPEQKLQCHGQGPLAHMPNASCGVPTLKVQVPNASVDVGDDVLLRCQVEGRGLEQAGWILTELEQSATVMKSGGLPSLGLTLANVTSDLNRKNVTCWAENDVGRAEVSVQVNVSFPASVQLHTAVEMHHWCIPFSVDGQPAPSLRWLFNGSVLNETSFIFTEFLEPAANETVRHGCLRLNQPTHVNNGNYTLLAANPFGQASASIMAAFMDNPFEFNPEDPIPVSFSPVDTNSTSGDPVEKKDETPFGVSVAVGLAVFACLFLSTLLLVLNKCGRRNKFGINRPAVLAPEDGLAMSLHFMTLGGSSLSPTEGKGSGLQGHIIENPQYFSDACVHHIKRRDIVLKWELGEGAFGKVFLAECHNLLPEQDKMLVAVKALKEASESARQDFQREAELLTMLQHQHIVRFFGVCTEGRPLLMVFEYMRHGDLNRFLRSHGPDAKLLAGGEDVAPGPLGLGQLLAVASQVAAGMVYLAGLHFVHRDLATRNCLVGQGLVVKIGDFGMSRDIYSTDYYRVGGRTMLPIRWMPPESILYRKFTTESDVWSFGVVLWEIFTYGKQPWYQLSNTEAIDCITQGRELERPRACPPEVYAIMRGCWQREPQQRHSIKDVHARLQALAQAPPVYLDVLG
Sequence of TrkC (Q16288 32-839, species assumed): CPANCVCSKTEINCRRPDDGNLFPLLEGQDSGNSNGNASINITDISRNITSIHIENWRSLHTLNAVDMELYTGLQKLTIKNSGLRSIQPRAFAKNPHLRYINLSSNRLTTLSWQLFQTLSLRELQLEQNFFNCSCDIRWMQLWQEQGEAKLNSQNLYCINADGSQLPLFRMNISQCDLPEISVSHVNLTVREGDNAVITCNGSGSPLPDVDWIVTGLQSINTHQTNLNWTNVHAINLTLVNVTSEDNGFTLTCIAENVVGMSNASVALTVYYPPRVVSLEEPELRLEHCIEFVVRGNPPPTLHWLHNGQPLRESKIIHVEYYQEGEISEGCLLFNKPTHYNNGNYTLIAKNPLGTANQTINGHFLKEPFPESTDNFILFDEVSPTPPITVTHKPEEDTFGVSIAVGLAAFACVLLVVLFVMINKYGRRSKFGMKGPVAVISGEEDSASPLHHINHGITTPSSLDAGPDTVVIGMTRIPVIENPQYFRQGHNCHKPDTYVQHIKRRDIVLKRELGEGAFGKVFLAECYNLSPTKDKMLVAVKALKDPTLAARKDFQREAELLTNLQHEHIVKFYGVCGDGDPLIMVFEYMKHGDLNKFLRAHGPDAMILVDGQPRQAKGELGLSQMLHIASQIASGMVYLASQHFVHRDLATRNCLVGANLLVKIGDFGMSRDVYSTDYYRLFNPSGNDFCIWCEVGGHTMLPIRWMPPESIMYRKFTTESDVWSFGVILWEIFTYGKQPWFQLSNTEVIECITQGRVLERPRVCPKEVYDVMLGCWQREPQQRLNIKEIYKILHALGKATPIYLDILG

## O=c1cc(-c2ccccc2)oc2c(O)c(O)ccc12 [7,8-dihydroxyflavone]
TrkB [1]
  TrkB tyrosine phosphorylation/activation in mice: provoked evident TrkB activation
TrkB [2]
  Effect of BDNF-IgG pretreatment on phosphorylation of TrkB induced by the substance: had no effect
TrkB [3]
  Activation of TrkB in BDNF-null cortical neurons: evident activation of TrkB
[4]
  Binding to ECD of TrkB receptor: selectively bound

## CC(C)(C)n1nc(Cc2cccc3ccccc23)c2c(N)ncnc21 [Compound 1NMPP1]
TrkB [1]
  TrkB tyrosine phosphorylation/activation in mice: had no effect
TrkB [1]; TrkB F616A mice
  Effect of 1NMPP1 pretreatment on TrkB activation by 7,8-dihydroxyflavone, L-DOPA and DOPS: markedly diminished TrkB activation
TrkB F616A knockin mice
  Effect of 1NMPP1 pretreatment on protective effect of Compounds I-8 and I-11: blocked the protective effect
[5]
  Effect of inhibitor on protective action of norepinephrine: abolished
mice
  Immobility times, 1NMPP1 versus saline treated control groups: No significant difference
TrkB F616A [6]
  Effect of inhibitor on catecholamine-induced TrkB activation: but not by 1NMPP1
TrkB F616A [7]
  Effect of inhibitor on catecholamine-provoked TrkB phosphorylation: selectively reduced

## CNC[C@H](O)c1ccc(O)c(O)c1 [epinephrine]
TrkB [8]
  Tyrosine phosphorylation of TrkB: elicited tyrosine phosphorylation
TrkB [9]
  Increase of stimulatory activity by overexpression of NET compared to control cells: approximately 100 fold
TrkC
  Tyrosine phosphorylation of TrkC: but not in TrkA or TrkC
TrkA
  Tyrosine phosphorylation of TrkA: but not in TrkA
TrkB [10]
  TrkB activation in NET -/- neurons: completely blocked
[11]; purified ICD, 3H-ligand
  Binding to ICD of TrkB receptor: strongest binding activity
[11]; purified protein, 25° C., 30 minutes, read-out: TrkB binding constants (Scatchard plot)
  Kd: 1100 nM

B1: BDNF: Brain-derived neurotrophic factor, natural ligand of TrkB (protein, UniProt P23560 19-247, looked up)
Neurotrophic factor BDNF …: APMKEANIRGQGGLAYPGVRTHGTLESVNGPKAGSRGLTSLADTFEHVIEELLDEDQKVRPNEENNKDADLYTSRVMLSSQVPLEPPLLFLLEEYKNYLDAANMSMRVRRHSDPARRGELSVCDSISEWVTAADKKTAVDMSGGTVTVLEKVPVSKGQLKQYFYETKCNPMGYTKEGCRGIDKRHWNSQCRTTQSYVRALTMDSKKRIGWRFIRIDTSCVCTLTIKRGR
TrkB [12]
  TrkB homodimerization: elicited TrkB homodimerization
TrkB [2]
  Effect of BDNF-IgG pretreatment on phosphorylation of TrkB induced by the substance: abolished
TrkB [3]
  Activation of TrkB in BDNF-null cortical neurons: evident activation of TrkB
TrkB [13]
  TrkB tyrosine phosphorylation (immunofluorescent staining): strongly triggered TrkB tyrosine phosphorylation
